This note sets out measurements from patent publication US20190150481A1, “COMPOSITIONS AND METHODS OF IMPROVING DIETARY PHOSPHORUS AND CALCIUM UTILIZATION IN ANIMALS” (Novus International, Inc., priority 2017, published 2019).

Values joined by “and” are separate entries in the source; they are usually repeats but may differ in a detail not shown here. Identical values can stand only once.

Common to all, as to format: in vivo
The subject of experiment [1] is nursery pigs. Description: Gain to feed ratio during d 15 to 28 in nursery pigs. To be noted: for G:F (d 15 to 28): 80 ppm Cu. From the text:
(§1) A total of 288 weaning barrows [TR-4×PIC C-22, initial body weight (BW)=5.71±0.71 kg] were allotted to 1 of 8 dietary treatments according to randomized complete block design. Pigs were blocked by initial body weight. The study started from weaning (day 0) to day 42 post-weaning. Three-phase feeding program was used in this study, in which day 0 to 14, day 15 to 28, and day 29 to 42 were considered as nursing phase 1, 2, and 3, respectively. A basal diet for each phase was formulated to meet the energy and nutrient requirement for different stages of pigs according to previously published recommendation,^1 with the exception of P [0.15% reduction of standardized total tract digestible (STTD) P] and Ca (adjusted according to the fixed ratio of Ca/STTD P=2.15). Eight experimental diets were formulated based on basal diet supplemented with phytase (0 or 500 FTU/kg), Zn sources (2000 ppm Zn from ZnO in phase 1 and 2, 100 ppm Zn from ZnO in phase 3; 100 ppm Zn from Zn(HMTBA)2 from phase 1 to 3) and Cu sources (150, 80, 80 ppm Cu from CuSO4 or Cu(HMTBA)2 in phase 1, 2, and 3, respectively) in a 2×2×2 factorial treatment design. Titanium dioxide at 0.4% was included in phase 2 diets to measure Ca and P digestibility.
(§2) SAS 9.4 (SAS Inst. Inc., Gary, N.C.) was used for all data analysis. Pen served as the experimental unit. The LSMEANS statement was be used to calculate the least square means. Tukey-Kramer adjustment was used for multiple comparisons of the least square means. Pooled SEM will be calculated for each measurement. A probability of P 0.05 will be considered as significant and 0.05<P≤0.10 will be declared as a trend. Mineral sources (Zn and Cu), phytase and their interactions were considered as the main effect, while block was considered as the random effect.

Experiment [2] relates to nursery pigs. Description: Bone (third metacarpal) Ca, P and ash concentrations in nursery pigs on day 42. The note with it: for Bone Ca (DM basis) / Bone P (DM basis) / Bone ash (DM basis): day 42.
Source text: as §1
On day 42, 2 pigs from each pen were euthanized to collect the right front legs. The third metacarpal bone from each right front leg was used to determine DM, Ca, P, and ash concentrations.
as §2

Experiment [3] has as its system nursery pigs. Kind of experiment: Standardized total tract digestibility (STTD) of Ca and P in nursery pigs, fecal grab sampling day 24 to 26, titanium dioxide marker. The note with it: for STTD of Ca / STTD of P: ZnO 2000 ppm Zn vs Zn(HMTBA)2 100 ppm Zn, nursery phase 2.
Source text: as §1
Fresh fecal samples were collected via grab sampling from each pig per pen at least twice per day from day 24 to 26. Fecal samples collected from the same pen during the 3 days were pooled together, and a subsample was placed inside a large oven set at 65° C. Oven dried fecal samples were stored at room temperature until analysis for dry matter (DM), Ca, P, and titanium (Ti).
The apparent total tract digestibility (ATTD) coefficient for Ca and P in each treatment was calculated using the following formula:
ATTD of Ca, %=[1−(Cafeces/Cadiet)×(Mdiet/Mfeces)]×100 (Equation 1)
ATTD of P, %=[1−(Pfeces/Pdiet)×Mdiet/Mfeces)]×100 (Equation 2) where Cafeces and Cadiet represented Ca concentrations (g/kg) in feces and diet DM, respectively; Pfeces and Pdiet represented P concentrations (g/kg) in feces and diet DM; Mdiet and Mdigesta represent the marker concentrations (g/kg) in diet and feces DM, respectively.
The standard total tract digestibility (STTD) of Ca was calculated according to the following equation:
STTD of Ca, %=[ATTD of Ca+(basal ECaLend/Cadiet)×100] (Equation 3) where Cadiet represented Ca concentrations (g/kg) in diet DM, respectively; basal ECaLend represented basal endogenous loss of Ca which was approximately 330 mg/kg DMI.
The standard total tract digestibility (STTD) of P was calculated according to the following equation:
STTD of P, %=[ATTD of P+(basal EPLend/Pdiet)×100] (Equation 4) where Pdiet represented P concentrations (g/kg) in diet DM, respectively; basal EPLend represented basal endogenous loss of P which was approximately 190 mg/kg DMI.
as §2

Setting [4] is: both supplemented at 80 ppm, Cu source main effect.

For the molecule `CSCCC(O)C(=O)[O-].CSCCC(O)C(=O)[O-].[Cu+2]` (stereo not drawn) [Cu(HMTBA)2], the “Difference to CuSO4 in gain to feed ratio (G:F) during day 15 to 28” value in experiment [1] (setting [4]) was “no significant differences”. In experiment [1] (no phytase), the “G:F (d 15 to 28)” value came out at 0.75 g/g. Further, the “G:F (d 15 to 28)” value in experiment [1] (with phytase 500 FTU/kg) was 0.84 g/g. Further, the “Difference to CuSO4 in bone Ca, P and ash” value in experiment [2] (setting [4]) was “no significant differences”. For the same molecule, in experiment [2] (no phytase), the “Bone Ca (DM basis)” value is on record as 12.55%, the “Bone P (DM basis)” value is recorded as 6.44% and the “Bone ash (DM basis)” value amounted to 35.95%. For the same molecule, in experiment [2] (with phytase 500 FTU/kg), the “Bone Ca (DM basis)” value is listed as 14.89%, the “Bone P (DM basis)” value worked out at 7.81% and the “Bone ash (DM basis)” value stood at 41.97%.
For `O=S(=O)([O-])[O-].[Cu+2]` [CuSO4, reference compound], the “G:F (d 15 to 28)” value in experiment [1] (no phytase) is 0.76 g/g. For the same molecule, the “G:F (d 15 to 28)” value in experiment [1] (with phytase 500 FTU/kg) was determined as 0.80 g/g. In experiment [2] (no phytase), the “Bone Ca (DM basis)” value came to 13.04%, the “Bone P (DM basis)” value was found to be 6.65% and the “Bone ash (DM basis)” value came out at 36.69%. Besides, in experiment [2] (with phytase 500 FTU/kg), the “Bone Ca (DM basis)” value was 14.14%, the “Bone P (DM basis)” value was determined as 7.38% and the “Bone ash (DM basis)” value is on record as 40.41%.
For the molecule `CSCCC(O)C(=O)[O-].CSCCC(O)C(=O)[O-].[Zn+2]` (stereo not drawn) [Zn(HMTBA)2], in experiment [3] (no phytase), the “STTD of Ca” value is 53.30% and the “STTD of P” value is recorded as 32.65%. For the same molecule, in experiment [3] (with phytase 500 FTU/kg), the “STTD of Ca” value stood at 65.63% and the “STTD of P” value came to 46.36%. In addition, in experiment [3] (with phytase supplementation), the “Absolute increase of STTD of Ca compared with ZnO” value worked out at 6.45% and the “Absolute increase of STTD of P compared with ZnO” value is reported as 12.68%. Also, in experiment [3] (without phytase), the “Absolute increase of STTD of Ca compared with ZnO” value came out at 4.81% and the “Absolute increase of STTD of P compared with ZnO” value was 29.98%.
Take `[O]=[Zn]` [ZnO, reference compound]: in experiment [3] (no phytase), the “STTD of Ca” value is 48.48% and 48.49%; the “STTD of P” value is given as 2.67%. Also, in experiment [3] (with phytase 500 FTU/kg), the “STTD of Ca” value turned out to be 59.18% and the “STTD of P” value stood at 33.68%.
